Assays:
stink bugs = assay: Test for Confirmation of Stink Bug Behaviors against Active Ingredients 1, 2, 3 (treated filter paper); type: in vivo, southern green stink bugs
Text: The test samples in “Test for Confirmation of Honeybee Repelling Effect 1” above were used.
A liquid calcium carbonate/ethanol dispersion was applied on the entire interior wall of a KP cup (100 mm in diameter×90 mm in height) and air-dried, after which a filter paper (90 mm in diameter) was fixed on the bottom face of the KP cup using double-sided tape. A different filter paper (90 mm in diameter) was cut along its diameter and the resulting semicircle-shaped paper was uniformly treated with 400 μL of each test sample or sample for correction, and then placed over the filter paper fixed on the aforementioned bottom face of the KP cup by allowing the circular parts to overlap, for use as a testing device.
The “repelling rate Y” and “corrected repelling rate Z” were calculated from the above “time A (sec)” and “time B (sec)” using the calculation formula below. For the “repelling rate of sample for correction” used to calculate the “corrected repelling rate Z,” the repelling rate of each of the samples for correction above (ethanol alone or water alone being a solvent for the active ingredient) was used.
Corrected repelling rate Z (%)={Repelling rate of test sample−Repelling rate of sample for correction}/{100−Repelling rate of sample for correction}×100
For the test samples, the test samples in “Test for Confirmation of Honeybee Repelling Effect 2” above were used.

honeybees = assay: Test for Confirmation of Honeybee Repelling Effect 1, 2, 3 (feeding station with 40% sugar water); type: in vivo; conditions: for Corrected repelling rate (%) Honeybees: Test 3, 5 mL
Text: The following were used as the test samples for Examples: 2% by weight per volume ethanol solutions of octane (a-1), tetradecane (a-2), heptadecane (a-3), nonadecane (a-4), 2-acetylfuran (b-1), 5-methyl-2-furaldehyde (b-2), furfural (b-3), furaneol (c-1), 2-acetylpyrrole (d-1), 1-benzylpyrrole (d-2), 1-octanol (e-1), 1-dodecanol (e-2), and 1-octadecanol (e-3), respectively; and 2% by weight per volume aqueous solutions of furfuryl alcohol (b-4), sotolon (c-2), and α-angelicalactone (c-3), respectively.
The following were used as the test samples for Comparative Examples: 2% by weight per volume ethanol solutions of eicosane (carbon number 20, p-1), heneicosane (carbon number 21, p-2), 2-methyloctane (branched alkane, p-3), tributyl o-acetylcitrate (p-4), and 1-methylpyrrole (p-5), respectively; and 2% by weight per volume aqueous solutions of 2-methyltetrahydrofuran-3-one (p-6) and acetic acid (p-7), respectively.
Ethanol alone and water alone were used as samples for correction.
The cotton pads 13 were impregnated with 40% sugar water (80 g), after which disposable wooden chopsticks 15 (80 mm in length) were placed over the cotton pads on the lid surface as “landing areas,” for use as “test insect (honeybee) feeding station 1” 10.
A nest box of test insects (honeybees) (1 colony: approx. 6,000 bees) was placed at the center of a glass hothouse (bottom face: 5 m×10 m, height (highest part): 3 m, temperature: 25° C.), and the aforementioned “test insect (honeybee) feeding station 1” was installed at a location 2 meters away from the nest box.
After confirming that at least five test insects (honeybees) were feeding at the above “test insect (honeybee) feeding station 1” installed in the hothouse, test 1 was conducted to measure the “approaching count (Mz)” and “landing count (My)” and calculate the “landing rate (Mx).”
Next, the “test insect (honeybee) feeding station 1” installed in the hothouse was replaced with each “test insect (honeybee) feeding station 2” which was let to stand still for 5 minutes, after which test 2 was conducted to measure the “approaching count (Nz)” and “landing count (Ny)” and calculate the “landing rate (Nx).”
Approaching count: Total number of times a honeybee has approached within 25 cm of the cotton wools at the feeding station during 5 minutes
Landing count: Total number of honeybees that have remained for at least 1 second on the cotton pads at the feeding station during 5 minutes
Landing rate (%): (Landing count/Approaching count)×100
The “repelling rate Q” and “corrected repelling rate R” were calculated from the above “landing rates” using the calculation formula below. For the “repelling rate of sample for correction” used to calculate the “corrected repelling rate R,” the repelling rate of each of the samples for correction above (ethanol alone or water alone being a solvent for the active ingredient) was used.
Repelling rate Q (%)={(Mx)−(Nx)}/(Mx)×100
Corrected repelling rate R (%)={Repelling rate of test sample−Repelling rate of sample for correction}/{100−Repelling rate of sample for correction}×100
The following were used as the test samples for Examples: 0.1% by weight per volume ethanol solutions of 3-methyl-2-butanol (e-4), carvacrol (x-1), isoeugenol (x-2), cinnamyl alcohol (x-3), diacetone alcohol (x-4), α-amylcinnamaldehyde (x-5), 3-methyl-2-butenal (x-6), valeraldehyde (x-7), ethyl cinnamate (x-8), methyl cinnamate (x-9), ethyl isovalerate (x-10), isoamyl formate (x-11), 5-ethyl-2-methylpyridine (x-12), 2-(3-phenylpropyl)pyridine (x-13), 2,6-dimethylpyridine (x-14), ß-ionone (x-15), 2-acetylthiazole (x-16), butylamine (x-17), and citronella oil (x-18), respectively; and a 0.1% by weight per volume aqueous solution of (3-amino-3-carboxypropyl)dimethylsulfonium chloride (x-19).

[1] = Test 1, 2% by weight per volume solution, 400 μL on filter paper, 30 minutes
[2] = Test 1, 2% by weight per volume solution
[3] = Test 1, honeybees, 2% by weight per volume solution, 5 mL sprayed (active ingredient 0.1 g)
[4] = Test 3, 0.1% by weight per volume solution, 400 μL
[5] = 0.1% by weight per volume solution
[6] = Test 2, 0.1% by weight per volume solution, 400 μL
[7] = Test 2, honeybees, 0.1% by weight per volume solution, 5 mL (active ingredient 5 mg)
[8] = 2.0% by weight per volume solution

CCCCCCCC [a-1, octane]
Corrected repelling rate (%) Stinkbugs (stink bugs; [1]): <0% | repelling effect / repelled behaviors of honeybees (in words) (honeybees; [2]): excellent repelling effect | Corrected repelling rate R (%) (honeybees; [3]): 57.0%

CCCCCCCCCCCCCC [a-2, tetradecane]
Corrected repelling rate (%) Stinkbugs (stink bugs; [1]): <0% | repelling effect / repelled behaviors of honeybees (in words) (honeybees; [2]): excellent repelling effect | Corrected repelling rate R (%) (honeybees; [3]): 96.5%

CC(=O)c1ccco1 [b-1, 2-acetylfuran]
Corrected repelling rate (%) Stinkbugs (stink bugs; [1]): <0% | Corrected repelling rate R (%) (honeybees; [3]): 60.3%

OCc1ccco1 [b-4, furfuryl alcohol]
Corrected repelling rate (%) Stinkbugs (stink bugs; 0.5 h, 2 % strength): <0% | Corrected repelling rate R (%) (honeybees; 2 % strength): 94.8%

CC1=C(O)C(=O)C(C)O1 (centres unmarked) [c-1, furaneol]
Corrected repelling rate (%) Stinkbugs (stink bugs; [1]): <0% | Corrected repelling rate R (%) (honeybees; [3]): 44.0%

CC1=C(O)C(=O)OC1C (centres unmarked) [c-2, sotolon]
Corrected repelling rate (%) Stinkbugs (stink bugs; [1]): <0% | repelling effect / repelled behaviors of honeybees (in words) (honeybees; [2]): excellent repelling effect | Corrected repelling rate R (%) (honeybees; [3]): 79.7%

CC1=CCC(=O)O1 [c-3, α-angelicalactone]
Corrected repelling rate (%) Stinkbugs (stink bugs; [1]): <0% | repelling effect / repelled behaviors of honeybees (in words) (honeybees; [2]): excellent repelling effect | Corrected repelling rate R (%) (honeybees; [3]): 31.7%

c1coc(Cn2cccc2)c1 [d-3, 1-furfurylpyrrole]
Corrected repelling rate (%) Stinkbugs (stink bugs; [4]): ∘ | Corrected repelling rate (%) Honeybees (honeybees; [5]): 25.4%

CC(C)C(C)O (centres unmarked) [e-4, 3-methyl-2-butanol]
Corrected repelling rate (%) Stinkbugs (stink bugs; [6]): <0% | Corrected repelling rate R (%) (honeybees; [7]): 17.7%

CCCCCO [e-7, 1-pentanol]
repelling of stink bugs and other injurious insects to be exterminated (in words) (stink bugs): not repelling stink bugs | Corrected repelling rate (%) Stinkbugs (stink bugs; [4]): ∘ | Corrected repelling rate (%) Honeybees (honeybees; [5]): 68.9%

CC(C)=CCO [e-8, 3-methyl-2-buten-1-ol]
Corrected repelling rate (%) Stinkbugs (stink bugs; [4]): ∘ | Corrected repelling rate (%) Honeybees (honeybees; [5]): 30.4%

Cc1ccc(C(C)C)cc1O [x-1, carvacrol]
Corrected repelling rate (%) Stinkbugs (stink bugs; [6]): <0% | Corrected repelling rate R (%) (honeybees; [7]): 80.6%

OCC=Cc1ccccc1 [x-3, cinnamyl alcohol]
Corrected repelling rate (%) Stinkbugs (stink bugs; [6]): <0% | Corrected repelling rate R (%) (honeybees; [7]): 98.2%

CC(C)=CC=O [x-6, 3-methyl-2-butenal]
Corrected repelling rate (%) Stinkbugs (stink bugs; [6]): <0% | Corrected repelling rate R (%) (honeybees; [7]): 91.8%

CCOC(=O)Cc1ccccc1 [y-24, ethyl phenylacetate]
Corrected repelling rate (%) Honeybees (honeybees; [8]): 55.5%

CC(=O)OC1CC(C)CCC1C(C)C (centres unmarked) [y-26, menthyl acetate]
Corrected repelling rate (%) Honeybees (honeybees; [5]): 76.4%

CC(=O)OC(C)(C)C1CC=C(C)CC1 (centres unmarked) [y-29, terpinyl acetate]
Corrected repelling rate (%) Honeybees (honeybees; [5]): 81.2%

CC(=O)OCCC(C)CCC=C(C)C (centres unmarked) [y-30, citronellyl acetate]
Corrected repelling rate (%) Honeybees (honeybees; [5]): 91.1%

C/C=C(\C)C(=O)OC/C=C(\C)CCC=C(C)C [y-31, geranyl tiglate]
Corrected repelling rate (%) Honeybees (honeybees; [5]): 70.3%

CNc1ccccc1C(=O)OC [y-34, methyl N-methylanthranilate]
Corrected repelling rate (%) Honeybees (honeybees; [5]): 78.6%

CCCCOC(=O)CCC [y-35, butyl butyrate]
Corrected repelling rate (%) Honeybees (honeybees; [5]): 61.7%

CCCCCCCC(=O)OCCCC [y-36, butyl n-octanoate]
Corrected repelling rate (%) Honeybees (honeybees; [5]): 52.0%

CCCCCCCCCC(=O)OCC [y-38, ethyl decanoate]
Corrected repelling rate (%) Honeybees (honeybees; [5]): 58.7%

CCCCCCCCCCCCCCC(=O)OCC [y-40, ethyl pentadecanoate]
Corrected repelling rate (%) Honeybees (honeybees; [5]): 77.6%

CCCCCCCC(=O)OCC [y-48, ethyl octanoate]
Corrected repelling rate (%) Honeybees (honeybees; [8]): 94.1%

CC(C)CCOC(=O)CC(C)C [y-52, isoamyl isovalerate]
Corrected repelling rate (%) Honeybees (honeybees; [8]): 23.5%

CC(=O)OCCC(C)C [y-53, isoamyl acetate]
Corrected repelling rate (%) Honeybees (honeybees; [8]): 23.0%

Cc1cnc(C)c(C)n1 [y-55, 2,3,5-trimethylpyrazine]
Corrected repelling rate (%) Honeybees (honeybees; [5]): 80.6%

CCc1nccnc1CC [y-56, 2,3-diethylpyrazine]
Corrected repelling rate (%) Honeybees (honeybees; [5]): 57.0%

Cc1cnccn1 [y-58, 2-methylpyrazine]
Corrected repelling rate (%) Honeybees (honeybees; [5]): 55.0%

CCc1nccnc1C [y-59, 2-ethyl-3-methylpyrazine]
Corrected repelling rate (%) Honeybees (honeybees; [5]): 72.8%

Cc1cncc(C)n1 [y-60, 2,6-dimethylpyrazine]
Corrected repelling rate (%) Honeybees (honeybees; [5]): 35.4%

CCc1cccnc1 [y-62, 3-ethylpyridine]
Corrected repelling rate (%) Honeybees (honeybees; [8]): 58.3%

CCCCCCCC1CCC(=O)O1 (centres unmarked) [y-63, γ-undecalactone]
repelling of stink bugs and other injurious insects to be exterminated (in words) (stink bugs): not repelling stink bugs

O=C1CCCO1 [y-64, γ-butyrolactone]
Corrected repelling rate (%) Honeybees (honeybees; [5]): 27.5%

CC(=O)c1ccc2ccccc2c1 [y-67, 2′-acetonaphtone]
Corrected repelling rate (%) Honeybees (honeybees; [5]): 91.0%

CC(=O)c1ccc(C)cc1 [y-68, 4-methylacetophenone]
Corrected repelling rate (%) Honeybees (honeybees; [5]): 84.3%

CC(=O)c1ccccc1 [y-69, acetophenone]
Corrected repelling rate (%) Honeybees (honeybees; [8]): 98.9%

CC(=O)CC(C)=O [y-70, acetylacetone]
Corrected repelling rate (%) Honeybees (honeybees; [5]): 21.5%

CC(=O)/C=C/C1C(C)=CCCC1(C)C (stereo not drawn) [y-71, α-ionone]
Corrected repelling rate (%) Honeybees (honeybees; [5]): 90.0%

CCCCCC(=O)O [y-72, hexanoic acid]
Corrected repelling rate (%) Honeybees (honeybees; [5]): 89.4%

CCCCCCCCCCCCCCCCCC(=O)O [y-74, stearic acid]
Corrected repelling rate (%) Honeybees (honeybees; [5]): 33.7%

O=C(O)c1ccc(O)cc1 [y-77, 4-hydroxybenzoic acid]
Corrected repelling rate (%) Honeybees (honeybees; [5]): 80.1%

c1ccc2scnc2c1 [y-78, benzothiazole]
Corrected repelling rate (%) Honeybees (honeybees; [5]): 87.7%

Cc1ccc2ncccc2c1 [y-80, 6-methylquinoline]
Corrected repelling rate (%) Honeybees (honeybees; [5]): 74.7%

O=C(O)c1ccnc2ccccc12 [y-82, 4-quinolinecarboxylic acid]
Corrected repelling rate (%) Honeybees (honeybees; [5]): 55.5%

Cc1cccc2nccnc12 [y-83, 5-methylquinoxaline]
Corrected repelling rate (%) Honeybees (honeybees; [5]): 78.7%

c1cnc2c(n1)CCCC2 [y-86, 5,6,7,8-tetrahydroquinoxaline]
Corrected repelling rate (%) Honeybees (honeybees; [8]): 73.2%

Sc1ccc2ccccc2c1 [y-88, 2-naphthalenethiol]
Corrected repelling rate (%) Honeybees (honeybees; [5]): 74.6%

Cc1cccc2c(C)cccc12 [y-89, 1,5-dimethylnaphthalene]
Corrected repelling rate (%) Honeybees (honeybees; [5]): 88.8%

C=Cc1ccc(OC)cc1 [y-90, 4-methoxystyrene]
Corrected repelling rate (%) Honeybees (honeybees; [8]): 95.6%

CN1CCCC1 [y-92, 1-methylpyrrolidine]
Corrected repelling rate (%) Honeybees (honeybees; [5]): 25.9%

COC[C@@H]1CCCN1 [y-93, (S)-2-(methoxymethyl)pyrrolidine]
Corrected repelling rate (%) Honeybees (honeybees; [5]): 66.9%

CCCCSCCCC [y-94, butyl sulfide]
Corrected repelling rate (%) Honeybees (honeybees; [8]): 17.2%

(−)-menthyl succinate [y-32]
Corrected repelling rate (%) Honeybees (honeybees; [5]): 57.7%

Source: patent US20230210116A1, “HONEYBEE REPELLENT” (EARTH CORPORATION, priority 2020, published 2023)
